Data published in patent US20210154119A1, “ASMT EXPRESSION PROMOTER” (Shiseido Company, Ltd., priority 2018, published 2021).

Tested on: ASMT gene
Assay: ASMT gene expression level in epidermal keratinocytes by quantitative PCR
Type: cell-based
Description: Commercially available normal adult skin-derived keratinocytes (Kurabo) were inoculated into a T75 flask at 5×10^5 cells/flask, and were cultured in a keratinocyte medium (Humedia-KG2, Kurabo) at 37° C. in a 5% CO2 atmosphere until they reached semiconfluency. The resulting cells were used as seed cells. The keratinocytes were collected by trypsinization, and inoculated into a 24-well plate at 2×10^4 cells/well, and cultured in a keratinocyte medium (Humedia-KG2, Kurabo) at 37° C., 5% CO2 atmosphere until they reached confluency.
To the epidermal keratinocytes having reached confluency was added the ectoin sample at an appropriate dilution ratio so that the ectoin concentration in the medium was 1 mM, followed by the continuation of the culture at 37° C. in a 5% CO2 atmosphere. As a control, a medium not containing the ectoin sample was used to carry out the culture.
Ten hours after the addition of ectoin, the medium was removed. Then the cells were lysed and RNA was extracted therefrom using a commercially available RNA extraction reagent (RNeasy Mini Kit, Qiagen).
Using the thus extracted RNA as a template, quantitative PCR was performed with a commercially available quantitative PCR reagent (BrilliantII QRT-PCR kit, Agilent) and a quantitative PCR device (Mx-3005P, Agilent), by which the expression level of the ASMT gene was determined. At the same time, the expression level of the RPLP0 gene whose expression level was almost constant was also determined as an internal standard. Commercially available PCR primer set (Takara Bio Inc.) specific to each gene was used.
To the epidermal keratinocytes cultured in the same manner as in Example 1 was added the ectoin sample at appropriate dilution ratios so that the ectoin concentration in the medium was 0.005 wt %, 0.01 wt %, 0.02 wt %, 0.05 wt %, 0.1 wt %, followed by the continuation of the culture at 37° C. in a 5% CO2 atmosphere.
To the epidermal keratinocytes cultured in the same manner as in Example 1 was added the respective samples at appropriate dilution ratios so that the concentration in the medium was respectively 1 mM (ectoine), 100 μM (glycosyl hesperidin), 0.1% (green tea extract), and 0.1% (oolong tea extract). These concentrations are all normal concentrations to be used in external formulations. After the addition of the samples, the cells were cultured, from which the ASMT expression level was evaluated in the same manner as in Example 1. As a control, a medium not containing any sample was used to carry out the culture.

CC1=N[C@H](C(=O)O)CCN1 [ectoin, (4S)-2-methyl-1,4,5,6-tetrahydropyrimidine-4-carboxylic acid]
ASMT gene expression level relative to control (control set to 1) (ectoin 1 mM in medium, 10 hours, normal adult skin-derived keratinocytes, versus medium containing no ectoin (FIG. 1)): very high ASMT expression promoting action
Concentration-dependency of ASMT expression promoting action (ectoin 0.005-0.1 wt % in medium, 10 hours, keratinocytes (FIG. 2)): dependent on the concentration thereof
ASMT gene expression level (ASMT/RPLP0) in comparison with various antioxidants (ectoine 1 mM versus glycosyl hesperidin 100 μM, green tea extract 0.1%, oolong tea extract 0.1%, keratinocytes (FIG. 3)): higher than that of green tea extract, oolong tea extract, and glycosyl hesperidin
ASMT gene expression level (ASMT/RPLP0) (ectoine 0.02 wt % in medium, 10 hours, keratinocytes, compared with 0.005 wt % and 0.01 wt % (FIG. 2)): higher than the cases of lower concentrations of ectoine (0.005 wt %, 0.01 wt %)
